Data on nine compounds can be found in article PMC12491680 (Acta Pharmaceutica Sinica. B, 2025).

Some results are limits rather than exact numbers.

Data set [1] is classed as in vivo, human. The conditions noted are these: victim serum, UPLC-Q Exactive MS/MS.
The nature of data set [2]: Acute toxicity of pure Gelsemium alkaloids in mice. The conditions noted are these: both, Kunming, mouse, in vivo, ip, 30 mg/kg.
Data set [3] relates to CA1 pyramidal neurons. As to the kind of experiment: Whole-cell recording in hippocampal CA1 pyramidal neurons. Type of data set: cell-based, C57BL/6J mice.
Data set [4] in a line: Detection of toxic alkaloids in mouse plasma after oral G. elegans extract. Type of data set: in vivo, Kunming mice. The conditions noted are these: mice, oral G. elegans 95% ethanolic extract 200 mg/kg, blood 5 min after gavage.
In data set [5] the test system is mice. The data set can be described thus: Respiratory function by whole-body plethysmography. The format is in vivo, C57BL/6J mice. The conditions noted are these: 0.22 mg/kg intraperitoneal.
Data set [6] deals with gelsenicine (1)-poisoned mice. The data set can be described thus: Antidote screening: survival of gelsenicine-poisoned mice. Type of data set: in vivo, Kunming mice. The conditions noted are these: gelsenicine 0.22 mg/kg i.p.
Data set [7] in a line: Quantitative analysis of gelsenicine in medulla. The format is in vivo, C57BL/6J mice. The conditions noted are these: 1 mg/kg intraperitoneal.
In data set [8] the test system is VRG neurons. The data set can be described thus: Whole-cell recording of spontaneous action potentials in VRG neurons. The format is cell-based, C57BL/6J mice.
The conditions of data set [9]: cited from earlier work.

For the compound `CCC1=N[C@H]2C[C@@]3(C(=O)N(OC)c4ccccc43)[C@H]3C[C@@H]1[C@@H]2CO3` [Compound 1, gelsenicine], the “Detection in the clinical blood sample” value in [1] is “clearly detected”. The LD50 at 7 days in [2] turned out to be 0.14 mg/kg. Further, in data set [3] (CA1 pyramidal neurons), the “Concentration at which action potentials were suppressed” value is not below 5 µmol/L. The “Effect on action potential firing” value in data set [3] (CA1 pyramidal neurons, 1 and 2 μmol/L) is on record as “failed to show an inhibitory effect”; in data set [8] (VRG neurons, 0.3 and 0.6 μmol/L), “did not have an inhibitory effect”. The “Effect on miniature inhibitory synaptic currents (mIPSCs)” value in [3] (hippocampus CA1 region, 5 μmol/L) is reported as “increased the amplitude”. Further, in data set [4], the Detection in plasma result was “detected in the plasma”. Further, the “Time to severe respiratory distress after injection” value in data set [5] is 5 to 10 min. Besides, the “Peak expiratory flow, peak inspiratory flow, frequency, tidal volume and minute ventilation” value in data set [5] (vs saline) is reported as “significant reduction”. Also, the “Time of death after administration” value in data set [6] (mice, no antidote) was “around 15 min”. In addition, the Distribution to medulla entry in data set [7] (C57BL/6 mice, 5 and 10 min) was “quickly distributed to medulla at 5 min, and sustained until 10 min”. Besides, the Time of death result in data set [7] (mice) is “around 10 min”. Moreover, the “Decrease of action potential firing rate” value in [8] (VRG neurons, 1 μmol/L) is given as “about 60%”; in data set [8] (VRG neurons, 2 μmol/L), “about 70%”. Moreover, the “Effect on firing rate of picrotoxin-treated VRG neurons” value in [8] (gelsenicine 1 μmol/L in the presence of picrotoxin 50 μmol/L) was “did not affect the firing rate”.
As to `C/C=C1\CN(C)[C@H]2C[C@@]3(C(=O)N(OC)c4ccccc43)[C@H]3C[C@@H]1[C@@H]2CO3` [Compound 17, humantenine], the “Detection in the clinical blood sample” value in [1] is “clearly detected”. In addition, the LD50 at 7 days in data set [2] stood at 7.11 mg/kg. Further, the Detection in plasma result in data set [4] was “detected in the plasma”.
Regarding `C=C[C@]12CN(C)[C@@H]3[C@H]4CO[C@H](C[C@H]41)[C@]1(C(=O)Nc4ccccc41)[C@@H]32` [Compound 24, gelsemine], in data set [1], the “Detection in the clinical blood sample” value is given as “could also be detected”.
`C=C[C@@]12CN(C)[C@H]3C[C@]14C(=Nc1ccccc14)[C@@H]1C[C@@H]2[C@@H]3CO1` [Compound 32, koumine]: in data set [1], the “Detection in the clinical blood sample” value was “could also be detected”. Also, the median lethal dose (LD50) at 7 days in [2] was more than 30 mg/kg.
For `CCC1(C)CC(=O)NC(=O)C1` [bemegride], the “Time to peak concentration and passage into the brain” value in data set [9] was not above 30 min. Also, the “Survival rate of poisoned mice” value in data set [6] (antidote 6.5 mg/kg i.p.) turned out to be 30%.
Turning to `CN1CCc2cc3c(cc2[C@H]1[C@@H]1OC(=O)c2c1ccc1c2OCO1)OCO3` [bicuculline, reference compound], the “Effect on firing of VRG neurons inhibited by gelsenicine” value in [8] (bicuculline 20 μmol/L after gelsenicine 1 μmol/L) was “restoring the normal firing rate”.
`CCOC(=O)c1ncn2c1CN(C)C(=O)c1cc(F)ccc1-2` [flumazenil]: the “Time to peak level” value in data set [9] (oral or intravenous, clinical and animal studies) was not above 5 min. In addition, the “Survival rate of poisoned mice” value in data set [6] (antidote 3 mg/kg i.p.) turned out to be 50%.
Take `O=C1C=C2C=C[C@@H]3C[C@@]2(O1)[C@H]1CCCCN31` [securinine]: in [9] (intraperitoneal injection), the “Time to peak concentration in plasma” value is on record as not above 9 min and the “Time to peak concentration in the brain” value was not above 30 min. The “Survival rate of poisoned mice” value in [6] (antidote 3 mg/kg i.p.) was 50%.
For picrotoxin [reference compound], the “Effect on VRG neuron activity (firing rate vs baseline)” value in data set [8] (picrotoxin 50 μmol/L alone) is reported as “robust increase in activity”.
